This note sets out measurements from PubChem BioAssay AID1996.

Each structure is given as a SMILES string. ≈ marks a conversion by molar mass, not a printed value. A value given as a limit tells only on which side of the number the result lay.

One may read the kinetic solubility as solubility judged after dilution from a stock solution rather than from solid.

The conditions of the series: buffer; pH 7.4; 200.0 µM.
`CNc1oc(/C=C/c2cccc(OC)c2)nc1C#N` displayed a kinetic solubility of 0.0037 mg/mL (≈ 14.5 µM).
With `CNC(=S)NCCCc1ccccc1` the figure was greater than 0.0312 mg/mL; with `Cc1cc(C)nc(-n2ncc3c2CC(C)CC3=O)n1` (stereo not given), greater than 0.0384 mg/mL; with `COc1ccc2c(c1OC)C(=O)N1C2SC[C@H]1C(=O)NC1CC1` (stereo not given in full), greater than 0.0502 mg/mL.
Under `COc1cccc(NC(=O)COC(=O)/C=C/c2ccco2)c1` stands 0.0305 mg/mL (≈ 101 µM); under `CCCNC(=O)CN1C(=O)c2ccccc2Sc2ncccc21`, greater than 0.0491 mg/mL.
Turning to `OCCN(CCO)c1nc(N2CCCCC2)c2nc(N(CCO)CCO)nc(N3CCCCC3)c2n1`, the solubility (kinetic) stood at 0.0107 mg/mL (≈ 21.2 µM).
With `CN(C(=O)CSc1nnc(-c2ccc(Cl)cc2)n1C)C1CCS(=O)(=O)C1` (stereo not given), the kinetic solubility was greater than 0.0622 mg/mL.
In turn, `COc1cc2[nH]c(=S)nc(NCc3cccnc3)c2cc1OC` displayed a kinetic solubility of 0.0122 mg/mL (≈ 37.2 µM).
Under `Cc1ccc2[nH]c(C)c(CC(=O)NCc3ccccc3)c2c1` stands greater than 0.0439 mg/mL; under `COc1ccccc1NS(=O)(=O)c1cc(N)ccc1N1CCCCC1`, 0.0061 mg/mL (≈ 16.9 µM); under `COc1cc(OC)c(C(=O)O/N=C(\N)c2ccccc2)cc1OC`, 0.0457 mg/mL (≈ 138 µM).
With `N/C(=N\OC(=O)CCCc1ccccc1)c1ccccc1Cl`, the solubility (kinetic) came out at 0.0114 mg/mL (≈ 36 µM). This solubility kinetic is about 4-fold lower than that of the compound before.
With `Cn1c(SCc2ccccc2F)nc2ccccc2c1=O`, the kinetic solubility is less than 0.0003 mg/mL.
Under `COCCNC(=S)N1CCC(NC(=O)c2ccco2)CC1` stands greater than 0.0467 mg/mL; under `O=C(/C=C/c1ccc([N+](=O)[O-])cc1)OCC(=O)N1CCCC1`, greater than 0.0456 mg/mL.
Regarding `Cc1ccc(S(=O)(=O)N2CCC(C)CC2)cc1`, the solubility (kinetic) is 0.0286 mg/mL (≈ 113 µM).
Compound `CC(=O)c1cccc(NC(=S)N2c3ccccc3CC2C)c1` (stereo not given) came in with a kinetic solubility of 0.0014 mg/mL (≈ 4.51 µM).
`COC(=O)CSc1nc2ccc(C)cc2cc1C#N` showed a kinetic solubility of 0.0019 mg/mL (≈ 6.98 µM).
In turn, `O=C1CC2(CCN(C(=O)c3ccc([N+](=O)[O-])cc3)CC2)Oc2ccccc21` returned a kinetic solubility of 0.0032 mg/mL (≈ 8.73 µM).
The compound `Cc1ccccc1COC(=O)c1cc([N+](=O)[O-])ccc1N1CCOCC1` returned a kinetic solubility of 0.0058 mg/mL (≈ 16.3 µM).
Under `COCCCn1c(=O)c2ccccc2n(Cc2ccccc2C)c1=O` stands greater than 0.0508 mg/mL; under `O=C(CSc1nc(C(F)(F)F)cc(=O)[nH]1)N1CCCC1`, greater than 0.0461 mg/mL; under `Cc1cc(=O)[nH]c2ccc(S(=O)(=O)N3CCOCC3)cc12`, 0.016 mg/mL (≈ 51.9 µM).
For `Cc1cccc(NC(=O)[C@@H]2CCCN2S(=O)(=O)c2ccc(Cl)cc2)c1`, the kinetic solubility worked out at 0.0379 mg/mL (≈ 100 µM).
`CCOC1C(=O)NC(=O)N1Cc1ccccc1` (stereo not given) yielded a solubility (kinetic) of 0.0298 mg/mL (≈ 127 µM).
With `Cc1cccc(CC2CC(=O)N(c3nc4ccccc4s3)C2=O)c1` (stereo not given) the figure was 0.0165 mg/mL (≈ 49 µM); with `Cc1cccc(-c2noc(-c3ccc4c(c3)OCO4)n2)c1`, less than 0.0003 mg/mL.
Consider `Cc1nc([N+](=O)[O-])cn1CCCCN1C(=O)c2ccccc2C1=O`, for which the kinetic solubility came to 0.0083 mg/mL (≈ 25.3 µM).
With `Cc1ccc(C)c(C(C)NC(=O)Cc2cccs2)c1` (stereo not given), the kinetic solubility was greater than 0.041 mg/mL.
Regarding `O=c1c2[nH]c3ccccc3c2nc2n1CCS2`, the kinetic solubility is 0.0045 mg/mL (≈ 18.5 µM).
In the case of `COC(=O)CSc1nc(N2CCOCC2)c2c(c1C#N)CCCC2`, the solubility (kinetic) was determined as 0.0256 mg/mL (≈ 73.7 µM).
`O=C(NCc1ccccc1)c1c(O)c2ccccc2[nH]c1=O` showed a kinetic solubility of less than 0.0003 mg/mL.
Take `CC(=O)N1CCCc2cc(S(=O)(=O)N3CCCC3)ccc21`: the kinetic solubility was greater than 0.0463 mg/mL.
Under `Cc1cccnc1NC(=O)CNC(=O)C1CCCCC1` stands greater than 0.0413 mg/mL.
Under `COCCc1nnc(NC(=O)C(C)C)s1` stands greater than 0.0344 mg/mL; under `O=C(COC(=O)Cc1ccc([N+](=O)[O-])cc1)NC1CCCCCC1`, greater than 0.0502 mg/mL.
Take `COc1ccc(/C=C/C(=O)N2CCN(C)CC2)cc1OC`: the kinetic solubility is greater than 0.0436 mg/mL.
Compound `Cc1cc(C)cc(N2CC(C(=O)Nc3cc(C)on3)CC2=O)c1` (stereo not given) displayed a solubility (kinetic) of 0.0067 mg/mL (≈ 21.4 µM).
`O=C(Nc1nc(-c2ccc(Cl)s2)cs1)c1ccco1` had a kinetic solubility of 0.0092 mg/mL (≈ 29.6 µM).
